Where two headings read alike, the source gives them in different places.
Columns and labels:
INDY = biological target: T1, INDY (Drosophila melanogaster, UniProt Q9VVT2); assay: Inhibition of [14C] succinate uptake in Xenopus oocytes injected with Indy mRNA; format: cell-based
T1 construct: expressed in transfected cells; host or cells: Xenopus laevis oocytes (stage V and VI) injected with Indy mRNA
Procedure: Stage V and VI oocytes from Xenopus laevis were dissected and defoliculated. The oocytes were injected with 25–50 ng of Indy mRNA 1 day after isolation. Nutrient uptake was measured 6 to 7 days later. The oocytes were maintained at 18° C. in Barth's solution containing […] gentamycin sulfate, 2.5 mM sodium pyruvate, and 5% heat-inactivated horse serum (Coady et al., Arch. Biochem. Biophys. 283: 130–134, 1990; Pajor and Wright, J. Biol. Chem 26:, 3557–3560, 1992).
Transport measurements were performed as in Pajor, J. Biol. Chem. 270: 5779–5785, 1995. Groups of oocytes were first washed in choline buffer to remove the serum. Transport was initiated by adding 0.4 ml of [^14C] succinate or [^14C] citrate in buffer A. Buffer A comprises 100 mM NaCl, 2 mM KCl, 1 mM MgCl2, and 10 mM HEPES-Tris (pH 7.5). Buffer B is the same as buffer A except the NaCl is replaced by 100 mM choline Cl. For other cation replacement studies, the sodium was replaced by equimolar amounts of the other cations, as their chloride salts. At the completion of the transport time, the nutrient uptake was stopped with 4 washes of 4 ml of ice-cold buffer B. To count the amount of [^14C] taken up by the oocyte, each oocyte was dissolved in 0.5 ml of 10% SDS, and the [^14C] assayed by scintillation counting.
Studies of sodium dicarboxylate cotransporters have indicated a broad range of specificity for di- and tri-carboxylic acids and the exclusion of monocarboxylic acids. The transport specificity of Indy was thus determined as the ability of various compounds to inhibit the uptake of [^14C] succinate. The test inhibitors were added at a concentration of 1 mM, approximately a 100-fold excess of inhibitor.
The relative affinity of INDY for succinate and citrate was determined by adding a constant amount of [^14C] succinate and increasing concentrations of citrate to oocytes expressing INDY.
To further characterize INDY, inhibitors of transport were added to the Indy oocyte system. P-aminohippuric Acid (PAH) is a reference compound used to study transport mechanisms. 4,4′-Diisothyocyanostilbene-2,2′-disulfonic acid (DIDS) is a specific inhibitor of channels. Phloretin is an inhibitor of channels that is known to block protein kinase C.

[1] = biological target: T2, rat sodium dicarboxylate cotransporter (Rattus norvegicus, UniProt P70545); details: cited from earlier work
T2 sequence (P70545 1-587): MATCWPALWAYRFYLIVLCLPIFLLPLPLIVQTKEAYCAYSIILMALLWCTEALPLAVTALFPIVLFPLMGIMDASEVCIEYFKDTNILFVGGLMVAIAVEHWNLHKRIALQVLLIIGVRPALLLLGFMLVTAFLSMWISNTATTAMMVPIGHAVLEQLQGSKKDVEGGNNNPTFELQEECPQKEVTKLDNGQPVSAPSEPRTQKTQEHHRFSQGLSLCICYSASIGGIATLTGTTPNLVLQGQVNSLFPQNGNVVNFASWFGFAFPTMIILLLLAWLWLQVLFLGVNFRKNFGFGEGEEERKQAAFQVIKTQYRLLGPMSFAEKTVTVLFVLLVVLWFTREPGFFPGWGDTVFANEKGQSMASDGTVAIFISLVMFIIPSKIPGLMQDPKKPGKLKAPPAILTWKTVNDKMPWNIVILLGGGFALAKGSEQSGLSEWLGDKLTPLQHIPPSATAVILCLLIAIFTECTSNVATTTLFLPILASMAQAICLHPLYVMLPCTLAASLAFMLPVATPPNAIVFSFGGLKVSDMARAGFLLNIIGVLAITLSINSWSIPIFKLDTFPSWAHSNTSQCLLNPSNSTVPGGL

[2] = test inhibitor at 1 mM, approximately 100-fold excess, FIG. 14

T1 sequence (Q9VVT2 19-590 limits assumed): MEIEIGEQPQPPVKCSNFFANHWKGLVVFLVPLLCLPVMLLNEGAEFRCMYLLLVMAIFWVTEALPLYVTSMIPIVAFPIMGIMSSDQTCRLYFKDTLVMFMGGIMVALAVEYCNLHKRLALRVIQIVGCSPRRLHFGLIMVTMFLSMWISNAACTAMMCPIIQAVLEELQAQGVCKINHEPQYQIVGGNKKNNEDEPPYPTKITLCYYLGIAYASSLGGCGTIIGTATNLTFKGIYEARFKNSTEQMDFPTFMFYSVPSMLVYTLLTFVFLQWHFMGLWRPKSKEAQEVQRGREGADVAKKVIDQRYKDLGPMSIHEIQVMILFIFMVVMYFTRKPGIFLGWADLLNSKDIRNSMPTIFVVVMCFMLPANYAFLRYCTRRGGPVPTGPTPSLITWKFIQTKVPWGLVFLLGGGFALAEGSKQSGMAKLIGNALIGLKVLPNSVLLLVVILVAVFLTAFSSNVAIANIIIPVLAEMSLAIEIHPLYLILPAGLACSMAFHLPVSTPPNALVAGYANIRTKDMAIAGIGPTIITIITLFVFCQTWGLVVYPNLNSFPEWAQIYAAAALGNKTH

O=S(=O)(O)c1cc(N=C=S)ccc1C=Cc1ccc(N=C=S)cc1S(=O)(=O)O [DIDS, 4,4′-Diisothyocyanostilbene-2,2′-disulfonic acid]
inhibition of succinate transport (INDY; 0.1 mM DIDS, FIG. 18): 80%

Nc1ccc(C(=O)NCC(=O)O)cc1 [PAH, P-aminohippuric Acid]
effect on succinate transport (in words) (INDY; 10 mM PAH, FIG. 18): no effect

O=C(O)CCC(=O)C(=O)O [alpha-ketoglutarate]
inhibition of [14C] succinate uptake (INDY; [2]): ~100%

O=C(O)CC(O)(CC(=O)O)C(=O)O [citrate]
inhibition at 100 µM (INDY; citrate at 0.1 mM, FIG. 17): ~50%
inhibition at 1000 µM (INDY; citrate at 1 mM, FIG. 17, read-out: inhibition of succinate uptake): ~90%
inhibition of succinate uptake (in words) (INDY; citrate at 10 mM, FIG. 17): completely inhibits
inhibition at 1000 µM (INDY; test inhibitor at 1 mM, approximately 100-fold excess, FIG. 14, read-out: inhibition of [14C] succinate uptake): ~100%

O=C(O)/C=C/C(=O)O [fumarate]
inhibition of [14C] succinate uptake (INDY; [2]): ~100%

N[C@@H](CCC(=O)O)C(=O)O [glutamate]
inhibition of succinate transport (in words) (INDY; [2]): little inhibition

CC(O)C(=O)O (centres unmarked) [lactate]
inhibition of succinate transport (in words) (INDY; [2]): little inhibition

O=C(CCc1ccc(O)cc1)c1c(O)cc(O)cc1O [phloretin, Phloretin]
effect on inward and outward currents in sodium-dependent transport [1]: inhibit both inward and outward currents
effect on succinate transport (in words) (INDY; 1 mM phloretin, FIG. 18): no effect

O=C(O)CCC(=O)O [succinate]
inhibition of [14C] succinate uptake (INDY; [2]): ~100%

O=S(=O)(O)O [sulfate]
inhibition of succinate transport (in words) (INDY; [2]): little inhibition
